Like-named read-outs stand apart in the source and are kept apart here.
Assays:
[1] = tested on: IAV(H1N1)pdm09 isolate I1; experiment: microbe, parasite or virus in culture; format: cell-based, influenza A virus; conditions: for inhibition at 2 µM / inhibition at 20 µM / inhibition at 200 µM: H1N1, 48 h, read-out: anti-IAV activity
MDCK II cells = experiment: cells; conditions: Canis lupus familiaris, 48 h, read-out: cell vitality
IAV(H1N1)pdm09 = tested on: IAV(H1N1)pdm09; parameters: method as in PMID 24498245; conditions: preincubation of particles for 2 h with 50 µg/mL (265 µM); A549 cells; cited from earlier work
[2] = tested on: recombinant IAV laboratory strain A/Puerto Rico/8/34-NS116-GFP; conditions: cited from earlier work
IAV neuraminidase = conditions: cited from earlier work
IAV(H1N1)pdm09 I1 = format: cell-based, influenza A virus
chicken erythrocytes = experiment: Direct agglutination of erythrocytes in the absence of IAV; format: cell-based; conditions: minimal concentration
Method: Twofold serial dilutions (25 µL) of test compounds in PBS and 4 hemagglutinating units (HU) of IAV (25 µl) were mixed carefully in 96-well plates with U-shaped bottom (Thermo Fisher Scientific Nunc, Schwerte, Germany). Plates were shaken for 5 min. and incubated for 25 min. at room temperature (RT). 50 µL of a 1.5% suspension of newborn chicken erythrocytes (RBC) in PBS (Labor Dr. Merk & Kollegen, Ochsenhausen, Germany) were added, and plates shaken again. Assays were read following a 2 h incubation period at RT, and the minimum inhibitory concentration (MIC), defined as the highest test compound dilution showing complete inhibition of the agglutination of erythrocytes, was determined. In every assay, a test compound control (compound plus RBC without addition of IAV), and erythrocyte controls (A: IAV plus RBC, without addition of test compound; B: RBC, without addition of test compound or IAV) were included.

Compound	CC50 at 48 h (in vitro) [µM]	IC50 ([1]; Influenza A virus, H1N1) [µM]	inhibition at 2 µM ([1]; Influenza A virus) [%]	inhibition at 20 µM ([1]; Influenza A virus) [%]	inhibition at 200 µM ([1]; Influenza A virus) [%]	viability at 2 µM (MDCK II cells) [%]	viability at 20 µM (MDCK II cells) [%]	viability at 200 µM (MDCK II cells) [%]	IC50 [1]	effect on virus replication (IAV(H1N1)pdm09)	EC50 [2] [µM]	IC50 (IAV neuraminidase) [µM]	CC50 at 48 h (in vitro; dog) [µM]	MIC (IAV(H1N1)pdm09 I1)	direct agglutination (chicken erythrocytes) [µM]
Oc1cc(O)c2c(c1)O[C@H](c1cc(O)c(O)c(O)c1)[C@@H](O)C2 [compound 3, gallocatechin]	> 200	≤ 156	0	0	66 ± 5	106 ± 5	108 ± 1	75 ± 17							
O=C(OC[C@H]1O[C@@H](OC(=O)c2cc(O)c(O)c(O)c2)[C@H](OC(=O)c2cc(O)c(O)c(O)c2)[C@@H](OC(=O)c2cc(O)c(O)c(O)c2)[C@@H]1OC(=O)c1cc(O)c(O)c(O)c1)c1cc(O)c(O)c(O)c1 [compound 12, 1,2,3,4,6-penta-O-galloyl-β-D-glucose, reference compound]	83	22	3 ± 3	46 ± 9	35 ± 1	91 ± 7	57 ± 14	37 ± 3	≤ 22 µM						
O=C(O)c1cc(O)c(O)c(O)c1 [compound 17, gallic acid monohydrate, reference compound]	197	> 200	0	-1	14 ± 11	106 ± 5	107 ± 8	49 ± 18		only little effect	~50	> 500			
Oc1cccc(O)c1O [compound 18, pyrogallol, reference compound]		≤ 241	0	7 ± 3	42 ± 1	98 ± 4	96 ± 1	43 ± 1					176		
O=C(O[C@@H]1Cc2c(O)cc(O)cc2O[C@@H]1c1ccc(O)c(O)c1)c1cc(O)c(O)c(O)c1 [compound 5, epicatechin-3-O-gallate]	175	≤ 258	0	1	38 ± 2	107 ± 3	106 ± 4	41 ± 2							
Oc1cc(O)c2c(c1)O[C@H](c1ccc(O)c(O)c1)[C@H](O)[C@H]2c1c(O)cc(O)c2c1O[C@H](c1ccc(O)c(O)c1)[C@H](O)[C@H]2c1c(O)cc(O)c2c1O[C@H](c1ccc(O)c(O)c1)[C@H](O)C2 [compound 10, epicatechin-(4β→8)-epicatechin-(4β→8)-epicatechin]		123	0	0	87 ± 5	104 ± 2	99 ± 4	122 ± 6					> 200		
Oc1cc(O)c2c(c1)O[C@H](c1ccc(O)c(O)c1)[C@H](O)[C@H]2c1c(O)cc2c(c1O)C[C@@H](O)[C@@H](c1ccc(O)c(O)c1)O2 [compound 9, epicatechin-(4β→6)-epicatechin]		≤ 163	0	0	63 ± 4	100 ± 3	84 ± 4	57 ± 4					> 200		
Oc1cc(O)c2c(c1)O[C@H](c1ccc(O)c(O)c1)[C@@H](O)C2 [compound 1, (+)-catechin monohydrate]	> 200	> 200	0	0	0	105 ± 3	102 ± 5	119 ± 9							
Oc1cc(O)c2c(c1)O[C@H](c1cc(O)c(O)c(O)c1)[C@H](O)C2 [compound 4, epigallocatechin]	> 200	> 200	0	0	26 ± 22	101 ± 4	106 ± 1	86 ± 17							
Oc1cc(O)c2c(c1)O[C@H](c1ccc(O)c(O)c1)[C@H](O)[C@H]2c1c(O)cc(O)c2c1O[C@H](c1ccc(O)c(O)c1)[C@H](O)[C@H]2c1c(O)cc(O)c2c1O[C@H](c1ccc(O)c(O)c1)[C@H](O)[C@H]2c1c(O)cc(O)c2c1O[C@H](c1ccc(O)c(O)c1)[C@H](O)C2 [compound 11, epicatechin-(4β→8)-epicatechin-(4β→8)-epicatechin-(4β→8)-epicatechin]		≤ 225	0	1	44 ± 7	101 ± 6	86 ± 8	54 ± 9					> 200		
O=C(O[C@@H]1Cc2c(O)cc(O)cc2O[C@@H]1c1cc(O)c(O)c(O)c1)c1cc(O)c(O)c(O)c1 [compound 6, reference compound]		≤ 12	1 ± 1	87 ± 25	60 ± 7	103 ± 4	92 ± 7	62 ± 9					> 200	no inhibitory effect	156
O=C1O[C@H]2[C@@H]3OC(=O)c4cc(O)c(O)c(O)c4-c4c(cc(O)c(O)c4O)C(=O)OC[C@H]2O[C@@H](OC(=O)c2cc(O)c(O)c(O)c2)[C@@H]3OC(=O)c2cc(O)c(O)c3c2[C@@H]2C1=CC(=O)[C@](O)(O3)C2(O)O [compound 13, geraniin, reference compound]		≤ 388	0	1 ± 1	25	99 ± 1	107 ± 2	35 ± 3					162		
O=c1oc2c(O)c(O)cc3c(=O)oc4c(O)c(O)cc1c4c23 [compound 15, ellagic acid, reference compound]	> 200	> 200	0	1 ± 1	4 ± 1	106 ± 1	110 ± 3	108 ± 2							
O=C(O[C@@H]1O[C@@H]2COC(=O)c3cc(O)c(O)c(O)c3-c3c(cc(O)c(O)c3O)C(=O)O[C@H]([C@H]1O)[C@@H]2O)c1cc(O)c(O)c(O)c1 [compound 14, corilagin, reference compound]			0	1	3 ± 2	101 ± 1	103 ± 1	8 ± 1	uncalc. ^3				120		
Oc1cc(O)c2c(c1)O[C@H](c1ccc(O)c(O)c1)[C@H](O)[C@H]2c1c(O)cc(O)c2c1O[C@H](c1ccc(O)c(O)c1)[C@H](O)C2 [compound 7, epicatechin-(4β→8)-epicatechin]		> 200	0	0	1 ± 1	107 ± 6	108 ± 9	117 ± 8					> 200		
Oc1cc(O)c2c(c1)O[C@H](c1ccc(O)c(O)c1)[C@H](O)C2 [compound 2, (−)-epicatechin]	> 200	> 200	0	0	1 ± 1	101 ± 2	104 ± 4	124 ± 20							
O=C(/C=C/c1ccc(O)c(O)c1)O[C@H](Cc1ccc(O)c(O)c1)C(=O)O [compound 16, rosmarinic acid, reference compound]	> 200	> 200	0	0	1 ± 1	102 ± 1	103 ± 1	102 ± 1							

From article PMC4193892, “3-O-Galloylated Procyanidins from Rumex acetosa L. Inhibit the Attachment of Influenza A Virus” (PLoS ONE, 2014)
